Patent US8921376B2, “Pyrrolopyridines useful as inhibitors of protein kinase” (Vertex Pharmaceuticals Incorporated, priority 2005, dated 2014)

Key:
Type in all cases: biochemical
Settings in all cases: Table 6; enzyme inhibition data (Ki)
JAK3 = target: T1, JAK3 (Homo sapiens, UniProt P52333); assay: JAK3 inhibition assay (33P incorporation into poly(Glu)4Tyr)
T1 sequence (P52333 1-1124): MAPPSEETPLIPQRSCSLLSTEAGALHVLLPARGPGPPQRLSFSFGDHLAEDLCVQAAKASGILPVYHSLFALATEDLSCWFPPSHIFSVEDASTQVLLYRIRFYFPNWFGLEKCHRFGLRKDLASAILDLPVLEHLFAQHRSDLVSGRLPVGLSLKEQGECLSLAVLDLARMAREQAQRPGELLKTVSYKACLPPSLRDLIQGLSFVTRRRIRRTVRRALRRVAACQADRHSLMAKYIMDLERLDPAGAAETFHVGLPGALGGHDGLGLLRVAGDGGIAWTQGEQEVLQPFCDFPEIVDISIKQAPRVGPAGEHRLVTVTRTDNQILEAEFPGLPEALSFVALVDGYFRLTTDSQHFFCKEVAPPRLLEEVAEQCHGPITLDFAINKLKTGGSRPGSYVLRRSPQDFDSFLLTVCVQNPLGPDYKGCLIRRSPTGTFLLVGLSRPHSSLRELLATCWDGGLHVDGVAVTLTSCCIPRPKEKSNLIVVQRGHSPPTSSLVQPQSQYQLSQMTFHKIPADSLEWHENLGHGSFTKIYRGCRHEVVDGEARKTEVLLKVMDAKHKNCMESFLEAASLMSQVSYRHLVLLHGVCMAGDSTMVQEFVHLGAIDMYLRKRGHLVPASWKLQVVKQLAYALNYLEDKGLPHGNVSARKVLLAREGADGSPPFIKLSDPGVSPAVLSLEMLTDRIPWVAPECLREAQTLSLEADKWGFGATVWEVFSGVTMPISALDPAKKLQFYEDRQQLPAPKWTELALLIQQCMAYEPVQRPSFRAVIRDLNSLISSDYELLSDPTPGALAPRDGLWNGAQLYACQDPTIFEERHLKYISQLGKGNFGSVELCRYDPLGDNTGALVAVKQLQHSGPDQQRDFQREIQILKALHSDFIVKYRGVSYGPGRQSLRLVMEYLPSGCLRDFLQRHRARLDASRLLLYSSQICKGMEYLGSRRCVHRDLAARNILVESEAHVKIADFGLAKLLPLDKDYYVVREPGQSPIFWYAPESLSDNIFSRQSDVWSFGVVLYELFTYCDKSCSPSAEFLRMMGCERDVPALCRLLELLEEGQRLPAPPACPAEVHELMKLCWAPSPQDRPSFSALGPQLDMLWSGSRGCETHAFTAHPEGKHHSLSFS
How it was run: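 Human JAK3 at 1 nM phosphorylated 1 μM poly(Glu)4Tyr using 5 μM [33P]ATP in HEPES pH 7.4 buffer with MgCl2, DTT and BSA. Reactions ran 20 min at 25° C. and were stopped with TCA. 33P incorporation was measured by scintillation after glass-fiber filter capture.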

JAK2 = JAK2 (Homo sapiens, UniProt O60674); assay: JAK2 inhibition assay (as Example 3 with JAK-2 enzyme)
How it was run: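 Radiometric JAK2 kinase assay: poly(Glu)4Tyr substrate at final 15 μM, ATP at final 12 μM with [33P]; buffer 100 mM HEPES pH 7.4, 1 mM DTT, 10 mM MgCl2, 25 mM NaCl, 0.01% BSA. 20 min at 25 °C, TCA-stopped, 33P incorporation counted after filter capture.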

ROCK I = ROCK I (Homo sapiens, UniProt Q13464); assay: ROCK-I inhibition assay (radioactive enzyme assay, MBP substrate)
How it was run: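 Human ROCK at 5 nM phosphorylated 27 μM myelin basic protein with 13 μM [γ-33P]ATP (final) in HEPES pH 7.5, MgCl2, NaCl, DTT and 1.5% DMSO. Reactions ran 2 h at room temperature before TCA quench and filter-plate scintillation counting. After background subtraction, data were fit to give Ki(app).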

JAK2, sequence (O60674 whole entry): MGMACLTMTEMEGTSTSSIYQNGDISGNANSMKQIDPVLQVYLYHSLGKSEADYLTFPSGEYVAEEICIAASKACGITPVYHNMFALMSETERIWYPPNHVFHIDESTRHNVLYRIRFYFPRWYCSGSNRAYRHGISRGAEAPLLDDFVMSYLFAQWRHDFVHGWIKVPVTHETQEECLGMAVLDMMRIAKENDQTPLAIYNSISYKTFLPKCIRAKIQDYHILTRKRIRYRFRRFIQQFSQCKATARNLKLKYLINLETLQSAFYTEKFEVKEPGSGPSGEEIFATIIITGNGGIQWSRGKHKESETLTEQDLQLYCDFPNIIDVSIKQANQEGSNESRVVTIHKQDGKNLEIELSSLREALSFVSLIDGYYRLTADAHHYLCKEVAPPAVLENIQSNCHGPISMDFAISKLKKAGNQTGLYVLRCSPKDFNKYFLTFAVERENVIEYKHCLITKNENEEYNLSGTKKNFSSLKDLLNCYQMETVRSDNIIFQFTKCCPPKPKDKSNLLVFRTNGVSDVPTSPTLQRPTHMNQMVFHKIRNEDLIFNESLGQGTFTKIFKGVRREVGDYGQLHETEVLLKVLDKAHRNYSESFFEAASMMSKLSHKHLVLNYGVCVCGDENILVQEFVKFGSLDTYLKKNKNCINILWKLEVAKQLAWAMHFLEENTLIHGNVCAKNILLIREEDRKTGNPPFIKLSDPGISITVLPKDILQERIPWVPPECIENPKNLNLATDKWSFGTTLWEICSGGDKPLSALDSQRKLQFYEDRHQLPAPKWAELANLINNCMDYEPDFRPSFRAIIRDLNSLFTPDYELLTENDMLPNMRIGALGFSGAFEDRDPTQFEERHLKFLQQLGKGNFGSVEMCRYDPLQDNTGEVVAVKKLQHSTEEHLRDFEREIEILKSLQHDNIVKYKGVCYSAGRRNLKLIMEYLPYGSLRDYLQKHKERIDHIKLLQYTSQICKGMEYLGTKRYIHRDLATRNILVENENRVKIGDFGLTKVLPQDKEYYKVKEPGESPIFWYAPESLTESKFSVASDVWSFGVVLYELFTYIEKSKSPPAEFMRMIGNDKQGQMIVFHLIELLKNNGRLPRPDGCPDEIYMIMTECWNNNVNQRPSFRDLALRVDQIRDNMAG
ROCK I, sequence (Q13464 whole entry): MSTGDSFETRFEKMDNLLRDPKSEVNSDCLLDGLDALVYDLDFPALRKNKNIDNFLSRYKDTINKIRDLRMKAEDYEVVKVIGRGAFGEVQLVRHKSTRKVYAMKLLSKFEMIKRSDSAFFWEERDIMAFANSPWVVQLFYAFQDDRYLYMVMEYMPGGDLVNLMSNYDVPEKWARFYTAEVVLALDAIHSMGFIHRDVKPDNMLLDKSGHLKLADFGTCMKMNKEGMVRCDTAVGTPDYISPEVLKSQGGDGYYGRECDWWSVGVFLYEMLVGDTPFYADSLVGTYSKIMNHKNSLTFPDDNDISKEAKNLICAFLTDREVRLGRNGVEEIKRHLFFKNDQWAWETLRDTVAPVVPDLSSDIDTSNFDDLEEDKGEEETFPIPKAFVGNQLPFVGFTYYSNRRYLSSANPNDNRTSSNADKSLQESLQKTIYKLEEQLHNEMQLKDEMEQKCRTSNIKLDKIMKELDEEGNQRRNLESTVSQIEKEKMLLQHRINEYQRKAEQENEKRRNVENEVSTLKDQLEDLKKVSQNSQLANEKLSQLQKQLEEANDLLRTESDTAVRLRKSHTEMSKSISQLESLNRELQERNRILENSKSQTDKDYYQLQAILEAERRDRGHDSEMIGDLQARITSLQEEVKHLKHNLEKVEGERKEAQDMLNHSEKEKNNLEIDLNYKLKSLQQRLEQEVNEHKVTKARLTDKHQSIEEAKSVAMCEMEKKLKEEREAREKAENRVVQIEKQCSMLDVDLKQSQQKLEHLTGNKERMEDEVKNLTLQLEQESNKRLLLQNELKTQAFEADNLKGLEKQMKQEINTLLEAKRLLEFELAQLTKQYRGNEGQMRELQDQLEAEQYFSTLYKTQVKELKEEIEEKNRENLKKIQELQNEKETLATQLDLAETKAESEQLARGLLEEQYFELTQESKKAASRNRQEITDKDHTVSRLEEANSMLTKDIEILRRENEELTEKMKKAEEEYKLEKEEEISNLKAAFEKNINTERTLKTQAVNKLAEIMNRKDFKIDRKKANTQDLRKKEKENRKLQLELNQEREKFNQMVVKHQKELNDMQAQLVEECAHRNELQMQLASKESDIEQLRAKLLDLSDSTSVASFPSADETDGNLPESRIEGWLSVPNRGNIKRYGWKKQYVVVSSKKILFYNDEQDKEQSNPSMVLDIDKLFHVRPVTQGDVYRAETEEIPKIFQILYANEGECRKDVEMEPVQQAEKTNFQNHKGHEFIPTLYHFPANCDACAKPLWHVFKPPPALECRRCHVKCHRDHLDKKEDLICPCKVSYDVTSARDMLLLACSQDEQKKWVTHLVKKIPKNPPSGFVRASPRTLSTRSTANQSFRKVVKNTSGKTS

Compound | Ki (JAK3) | Ki (JAK2) | Ki (ROCK I)
CCOc1cccc(-c2ccnc3[nH]ccc23)c1 [compound 249] | < 500 nM | < 500 nM | < 500 nM
c1cc(-c2cn[nH]c2)c2cc[nH]c2n1 [compound 250] | < 500 nM | < 500 nM | < 500 nM
O=C(NCC(F)(F)F)c1cccc(-c2ccnc3[nH]ccc23)c1 [compound 251] | < 500 nM | 500 to 5000 nM | < 500 nM
O=C(NCCC(F)(F)F)c1cccc(-c2ccnc3[nH]ccc23)c1 [compound 252] | < 500 nM | 500 to 5000 nM | 500 to 5000 nM
O=C(NCC(F)(F)F)c1ccccc1-c1ccnc2[nH]ccc12 [compound 253] | > 5000 nM | > 5000 nM | > 4000 nM
O=C(NCCC(F)(F)F)c1ccccc1-c1ccnc2[nH]ccc12 [compound 254] | > 5000 nM | > 5000 nM | > 4000 nM
CCNC(=O)c1cccc(-c2ccnc3[nH]ccc23)c1 [compound 255] | 500 to 5000 nM | 500 to 5000 nM | 500 to 5000 nM
CCCNC(=O)c1cccc(-c2ccnc3[nH]ccc23)c1 [compound 256] | 500 to 5000 nM | > 5000 nM | 500 to 5000 nM
CCNC(=O)c1ccccc1-c1ccnc2[nH]ccc12 [compound 257] | > 5000 nM | > 5000 nM | > 4000 nM
CCCNC(=O)c1ccccc1-c1ccnc2[nH]ccc12 [compound 258] | > 5000 nM | > 5000 nM | > 4000 nM
O=C(NCC(F)(F)F)c1cc(-c2ccnc3[nH]ccc23)c[nH]1 [compound 259] | < 500 nM | < 500 nM | < 500 nM
O=C(NCC(F)(F)F)c1ccc(-c2ccnc3[nH]ccc23)s1 [compound 260] | < 500 nM | < 500 nM | < 500 nM
CCN(C)C(=O)c1cc(-c2ccnc3[nH]ccc23)c[nH]1 [compound 261] | < 500 nM | < 500 nM | < 500 nM
CCN(CC)C(=O)c1cc(-c2ccnc3[nH]ccc23)c[nH]1 [compound 262] | < 500 nM | < 500 nM | < 500 nM
O=C(NC1CCCC1)c1cc(-c2ccnc3[nH]ccc23)c[nH]1 [compound 263] | < 500 nM | < 500 nM | < 500 nM
CC(C)NC(=O)c1cc(-c2ccnc3[nH]ccc23)c[nH]1 [compound 264] | < 500 nM | < 500 nM | < 500 nM
CC(C)(C(=O)NCC(F)(F)F)c1cccc(-c2ccnc3[nH]ccc23)n1 [compound 265] | < 500 nM | < 500 nM | < 500 nM
O=C(Cc1nc(-c2ccnc3[nH]ccc23)ncc1F)NCC(F)(F)F [compound 266] | 500 to 5000 nM | < 500 nM | 500 to 5000 nM
CCCNC(=O)c1ccc(-c2ccnc3[nH]ccc23)cc1 [compound 267] | < 500 nM | < 500 nM | < 500 nM
O=C(NCCC(F)(F)F)c1ccc(-c2ccnc3[nH]ccc23)cc1 [compound 268] | < 500 nM | < 500 nM | < 500 nM
O=C(NCC(F)(F)F)c1ccc(-c2ccnc3[nH]ccc23)cc1 [compound 269] | < 500 nM | < 500 nM | < 500 nM
O=C(NC1CC1)c1ccc(-c2ccnc3[nH]ccc23)cc1 [compound 270] | 500 to 5000 nM | < 500 nM | 500 to 5000 nM
O=C(Nc1ccccc1)c1ccc(-c2ccnc3[nH]ccc23)cc1 [compound 271] | < 500 nM | < 500 nM | < 500 nM
